In patent publication US20140363838A1, “MICROPERFUSION IMAGING PLATFORM” (William Marsh Rice University, priority 2013, published 2014):
In brackets after ≈: the same amount, converted by molar mass.

Key:
[1] = test system: MDA-MB-468 cells; assay: nuclear analysis (fixed cells, DAPI staining) of microcarriers on pBNC platform
[2] = test system: MDA-MB-468 cells; assay: live/dead (calcein-AM/EthD-1) viability assay, monolayer 96-well plate, fluorescence plate reader; type: cell-based; settings: Homo sapiens, 96-well plate assays, 24 hour doxorubicin exposure, composite of 3 assays, read-out: Computed IC50 of composite dose curve (percent viability from EthD-1 intensity)
Experimental: Negative and positive controls were included as columns in each plate for the 96-well plate assays. Four negative control microcarriers were included in each assay on the BNC platform and one positive control assay served as the positive control for determining percent viability. Dose curves were plotted using a 5-parameter curve fitting algorithm in MATLAB (MATHWORKS®).
An equivalent viability assay was performed using standard 96-well plates for comparative purposes. Cells were seeded on 3, 96-well plates (CORNING®) at a final seeding density of about 10,000 cells per well. Plates were incubated at 37° C., 5% CO2 for 72 hours before media was exchanged for doxorubicin-containing media and incubated for an additional 24 hours. Negative control columns on each plate were prepared by replacing media with 70% methanol and incubating for 30 minutes at 37° C. Before imaging, all media was removed and cells were washed with warm PBS and replaced with a calcein-AM/EthD-1 solution with the same concentration as in the pBNC assay. […] A single point scan was performed on each well at excitation/emission wavelengths (nm) of 485/530 for calcein-AM and 530/645 for EthD-1.

[3] = test system: MDA-MB-468 cells; assay: equivalent nuclear assay (fixed cells, DAPI staining) in monolayer
[4] = test system: MDA-MB-468 cells; assay: live/dead (calcein-AM/EthD-1) viability assay, microcarrier format on pBNC device; type: cell-based; settings: Homo sapiens, BNC assays, microcarriers, 24 hour doxorubicin exposure, composite of 3 assays, read-out: Computed IC50 of composite dose curve (percent viability from EthD-1 intensity)
Experimental: Microcarriers cultured with MDA-MB-468 cells were harvested after 5-6 days of static culture with regular media exchanges every 48 hours. Doxorubicin solutions were prepared in fresh, warm media in volumes of 1 mL and added to aliquots of about 200 μL microcarriers and statically incubated for 24 hours at 37° C. Each aliquot was transferred to a sterile 2 ml micro-centrifuge tube where the microcarriers were allowed to settle. After supernatant was removed, microcarriers were rinsed in warm PBS, and incubated in fresh media at 37° C. until assayed. Negative control microcarriers were prepared by replacing this media with 70% methanol and incubating at room temperature for 30 minutes, and then suspended in PBS.
For each assay performed in triplicate (on a prior card embodiment with outlets at the bottom of the card), 4 negative control microcarriers were placed in the 4 outer corners of a 3×4 array of micro-containers through careful manipulation with precision forceps. […]
Images were acquired using a monochrome DVC camera connected to an Olympus BX-2 microscope (Center Valley, Pa.) with a 4× objective at a single focal plane at the top of the microcarriers. […] Intensities for both FITC and TxRed channels were measured separately, using a custom written ImageJ macro that extracts the average of the maxima of a series of line profile scans down each microcarrier. […]

[5] = test system: cells on spheroid microcarrier; assay: doxorubicin uptake, chip versus plate/static, by Z depth; type: cell-based

Compound: COc1cccc2c1C(=O)c1c(O)c3c(c(O)c1C2=O)C[C@@](O)(C(=O)CO)C[C@@H]3O[C@H]1C[C@H](N)[C@H](O)[C@H](C)O1 [doxorubicin]
- cells remaining attached (identified nuclear counts) ([1]; 100 μg/mL doxorubicin, 24 hour exposure, Cytodex I microcarriers): some cells remained attached
- total cell population (DAPI-stained nuclei / live-dead cell counting) ([1]; increasing doxorubicin concentrations, both counting methods): decrease in total cell population
- average uncorrected nuclear compactness ([1]; microcarrier format, increasing doxorubicin concentration): increase in the average uncorrected compactness
- average nuclear area ([1]; microcarrier platform, across 10.000-fold doxorubicin concentration range): increases for low concentrations of doxorubicin and decreases for higher concentrations
- distribution of average DAPI intensity of nuclei ([1]; microcarrier platform, high doxorubicin concentrations (10 μg/mL)): shift in the distribution of DAPI intensities towards lower intensities
- IC50 [2]: 10 µg/mL (≈ 18.4 µM)
- cells remaining attached (identified nuclear counts) ([3]; 100 μg/mL doxorubicin, 24 hour exposure, monolayer): no monolayer cells remained attached
- average uncorrected nuclear compactness ([3]; monolayer format, increasing doxorubicin concentration): increase in the average uncorrected compactness
- average nuclear area ([3]; monolayer platform, across 10.000-fold doxorubicin concentration range): increases for low concentrations of doxorubicin and decreases for higher concentrations
- distribution of average DAPI intensity of nuclei ([3]; monolayer platform, high doxorubicin concentrations (10 μg/mL)): shift in the distribution of DAPI intensities towards lower intensities
- IC50 [4]: 4 µg/mL (≈ 7.36 µM)
- doxorubicin penetration into spheroid microcarrier cell layers (z-slices) ([5]; 2 hours incubation, observed for both chip and plate platforms): only able to penetrate through a few outer layers of cells
- doxorubicin uptake, chip compared with static ([5]; chip vs static, FIG. 14): highly comparable
